This is an account of results in patent US20110046066A1, “INHIBITORS OF IAP” (GENENTECH, INC., priority 2008, published 2011).

The target of assay [1] is T1, X-IAP BIR3 (Homo sapiens, UniProt P98170).
T1 construct: 0.5 μM X-IAP BIR3
The experiment in a line: Fluorescence polarization peptide binding assay, X-IAP BIR3. The note with it: for IC50: 0.5 μM X-IAP BIR3, 5 nM AVP-diPhe-FAM probe, one hour incubation; for Ki: determined from the IC50 values (procedure of Keating et al.). As to the method: (§1) Polarization experiments were performed on an Analyst HT 96-384 reader (Molecular Devices Corp.) in order to determine dissociation constants (Kd) between IAP protein BIR domains and the fluorescent probe. Samples for fluorescence polarization affinity experiments were prepared by addition of serial dilutions of IAP BIR domains (C-IAP1 BIR3, C-IAP-2 BIR3, ML/X-IAP chimera MLXBIR3SG and X-IAP BIR3) in polarization buffer (50 mM Tris [pH 7.2], 120 mM NaCl, 1% bovine globulins 5 mM DTT and 0.05% octylglucoside) to 5-carboxyflourescein-conjugated AVPdi-Phe-NH2 (AVP-diPhe-FAM) at 5 nM final concentration.
(§2) The reactions were read after an incubation time of 1 hour at room temperature with standard cut-off filters for the fluorescein fluorophore (λex=485 nm; λem=530 nm) in 384-well black plates (Molecular Devices Corp.). Fluorescence polarization values were plotted as a function of the protein concentration, and the effective concentration 50 (EC50) values were obtained by fitting the data to a 4-parameter equation using Kaleidagraph software (Synergy software, Reading, Pa.). The apparent Kd values were determined from the EC50 values. Inhibition Constants (Ki values) for the antagonists were determined by the addition of 0.06 μM MLXBIR3SG, 0.5 μM X-IAP BIR3, 0.2 μM C-IAP1 BIR3 or 0.4 μM C-IAP-2 BIR3 to wells containing 5 nM of the AVP-diPhe-FAM probe as well as 1:3 serial dilutions of antagonist compounds starting at a concentration of 200 μM in the polarization buffer. Samples were read after an incubation time of one hour. Fluorescence polarization values were plotted as a function of the antagonist concentration, and the IC50 values were obtained by fitting the data to a 4-parameter equation using Kaleidagraph software (Synergy software, Reading, Pa.). Ki values for the antagonists were determined from the IC50 values according to the procedure of Keating, S. M., Marsters, J, Beresini, M., Ladner, C., Zioncheck, K., Clark, K., Arellano, F., and Bodary, S. (2000) in Proceedings of SPIE: In Vitro Diagnostic Instrumentation (Cohn, G. E., Ed.) pp 128-137, Bellingham, Wash. […] All values are micromolar.

Assay [2] deals with T2, C-IAP2 BIR3 (Homo sapiens, UniProt Q13489).
T2 construct: 0.4 μM C-IAP-2 BIR3
T2 sequence (Q13489 238-349 limits assumed): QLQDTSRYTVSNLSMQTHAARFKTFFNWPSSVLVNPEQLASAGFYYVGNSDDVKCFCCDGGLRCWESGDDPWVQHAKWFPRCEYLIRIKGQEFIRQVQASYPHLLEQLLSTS
The assay is described as follows: Fluorescence polarization peptide binding assay, C-IAP2 BIR3. The conditions noted are these: for IC50: 0.4 μM C-IAP-2 BIR3, 5 nM AVP-diPhe-FAM probe, one hour incubation; for Ki: determined from the IC50 values (procedure of Keating et al.). As to the method: as §1, §2

Assay [3] deals with T3, C-IAP1 BIR3 (Homo sapiens, UniProt Q13490).
T3 construct: 0.2 μM C-IAP1 BIR3
T3 sequence (Q13490 253-363 limits assumed): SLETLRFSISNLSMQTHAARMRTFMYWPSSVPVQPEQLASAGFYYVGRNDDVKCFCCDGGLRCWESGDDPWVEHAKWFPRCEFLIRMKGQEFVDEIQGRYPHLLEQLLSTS
The experiment in a line: Fluorescence polarization peptide binding assay, C-IAP1 BIR3. The conditions noted are these: for IC50: 0.2 μM C-IAP1 BIR3, 5 nM AVP-diPhe-FAM probe, one hour incubation; for Ki: determined from the IC50 values (procedure of Keating et al.). The procedure: as §1, §2

In assay [4] the target is T4, ML/X-IAP chimera MLXBIR3SG (Homo sapiens, UniProt Q96CA5, S150G).
T4 sequence (Q96CA5 with tags, fused parts or gaps S150G): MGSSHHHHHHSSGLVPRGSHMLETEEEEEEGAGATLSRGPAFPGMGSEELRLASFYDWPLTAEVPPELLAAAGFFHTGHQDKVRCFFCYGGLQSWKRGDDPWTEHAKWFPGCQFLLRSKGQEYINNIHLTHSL
The assay is described as follows: Fluorescence polarization peptide binding assay, MLXBIR3SG. The note with it: for IC50: 0.06 μM MLXBIR3SG, 5 nM AVP-diPhe-FAM probe, one hour incubation; for Ki: determined from the IC50 values (procedure of Keating et al.). As to the method:
The following fluorescence polarization experiments used a chimeric BIR domain referred to as MLXBIR3SG in which 11 of 110 residues correspond to those found in XIAP BIR3, while the remainder correspond to ML-IAP BIR. […] The improved caspase-9 inhibition of the chimeric BIR domain MLXBIR3SG has been correlated with increased inhibition of doxorubicin-induced apoptosis when transfected into MCF7 cells.
as §1, §2

T1 sequence (P98170 241-356 limits assumed): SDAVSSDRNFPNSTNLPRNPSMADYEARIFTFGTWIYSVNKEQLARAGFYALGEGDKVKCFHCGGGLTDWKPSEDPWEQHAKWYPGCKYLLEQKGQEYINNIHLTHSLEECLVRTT

Consider `CN[C@@H](C)C(=O)N[C@H](C(=O)N[C@H](C(=O)Nc1snnc1-c1ccccc1)C(C)(C)SCc1ccc(OC)cc1)C1CCCCC1` [Compound 19], for which the IC50 in assay [1] is approximately 100000 nM; in assay [2], 341 nM; in assay [3] it was 289 nM; in assay [4] it was 543 nM. Besides, the inhibition constant (Ki) was found to be 17800 nM in assay [1], 74 nM in assay [2], 45 nM in assay [3] and 124 nM in assay [4].

As for `CN[C@@H](C)C(=O)N[C@H](C(=O)N[C@H](C(=O)Nc1snnc1-c1ccccc1)C(C)(C)SC)C1CCCCC1` [Compound 20, (R)-2-((S)-2-cyclohexyl-2-((S)-2-(methylamino)propanamido)-acetamido)-3-methyl-3-(methylthio)-N-(4-phenyl-1,2,3-thiadiazol-5-yl)butanamide], the IC50 in assay [1] stood at 21700 nM; in assay [2], 202 nM; in assay [3], 133 nM; in assay [4], 249 nM. For the same compound, the Ki worked out at 3870 nM in assay [1], 44 nM in assay [2], 21 nM in assay [3] and 57 nM in assay [4].

As to `CN[C@@H](C)C(=O)N[C@H](C(=O)N[C@H](C(=O)Nc1snnc1-c1ccccc1)C(C)(C)SCNC(C)=O)C1CCCCC1` [Compound 21], the IC50 in assay [1] is 22400 nM; in assay [2] it was 342 nM; in assay [3] it was 202 nM; in assay [4], 407 nM. For the same compound, the Ki in assay [1] amounted to 3990 nM; in assay [2] it was 74 nM; in assay [3], 31 nM; in assay [4], 93 nM.

For the compound `CN[C@@H](C)C(=O)N[C@H](C(=O)N[C@H](c1nc(-c2ccc(F)c3ccccc23)cs1)C(C)(C)SCc1ccc(OC)cc1)C1CCCCC1` [Compound 22], the concentration for half-maximal inhibition (IC50) in assay [1] is more than 200000 nM; in assay [2], 2450 nM; in assay [3] it was 2290 nM; in assay [4] it was 8880 nM. Also, the Ki was more than 35000 nM in assay [1], 530 nM in assay [2], 354 nM in assay [3] and 2020 nM in assay [4].

Regarding `CN[C@@H](C)C(=O)N[C@H](C(=O)N(C)[C@H](C(=O)Nc1snnc1-c1ccccc1)C(C)(C)SC)C1CCCCC1` [Compound 23], the 50% inhibitory concentration (IC50) in assay [1] is 14000 nM; in assay [2] it was 276 nM; in assay [3], 155 nM; in assay [4] it was 304 nM. In addition, the inhibition constant (Ki) came to 2490 nM in assay [1], 60 nM in assay [2], 24 nM in assay [3] and 69 nM in assay [4].

Take `CN[C@@H](C)C(=O)N[C@H](C(=O)N(C)[C@H](C(=O)Nc1snnc1-c1ccccc1)C(C)(C)C)C1CCCCC1` [Compound 24, (S)-2-((S)-2-cyclohexyl-N-methyl-2-((S)-2-(methylamino)propan-amido)acetamido)-3,3-dimethyl-N-(4-phenyl-1,2,3-thiadiazol-5-yl)butanamide]: the IC50 in assay [1] was more than 200000 nM; in assay [2] it was 1320 nM; in assay [3] it was 1320 nM; in assay [4], 4080 nM. Moreover, the Ki is more than 35000 nM in assay [1], 285 nM in assay [2], 205 nM in assay [3] and 929 nM in assay [4].
